Assay results published in patent US20140147411A1, “METHODS OF TREATING CANCER AND TESTING MUTATION ZYGOSITY RELATED THERETO” (U.S. GOVERNMENT represented by the UNITED STATES DEPARTMENT …, priority 2012, published 2014).

How the values were obtained:
[1] = test system: A375 melanoma cells; assay: Cell surface MHC class I, B2M and MHC class II by flow cytometry in A375 cells after interferon
Experimental: A representative western blot is shown. A375 cells were pre-treated with vehicle (DMSO) or 10 μM of PLX4720 60 minutes prior to the addition of IFN-γ (100 U/ml). Whole cell lysates were prepared 24 hours later and levels of phospho-ERK (Thr 202/Tyr 204) and total ERK protein were analyzed by western blot. B, A representative flow cytometry histogram is shown. A375 cells were pre-treated with vehicle (DMSO, black line, unfilled) or 10 μM PLX4720 (black dotted line) for 60 minutes prior to the addition of IFN-γ (10 U/ml). Control cells were left untreated (gray filled). Cell surface MHC class I was analyzed using flow cytometry 72 hours later using an antibody that recognizes a shared epitope on HLA-A, B and C molecules. Cells stained with an isotype control antibody are shown (black filled). C, Averaged mean fluorescence intensity (MFI) from three independent flow cytometry experiments is shown (y-axis) and treatments are indicated along the x-axis. The error bars represent the SEM. (*, p<0.05; two-tailed paired Student's t test, as compared to cells treated with IFN-γ and pre-treated with DMSO).
A representative western blot is shown. […] Cell lysates were prepared 72 hours later and levels of total ERK and phospho-ERK (Thr 202/Tyr 204) protein analyzed by western blot. […] Cell surface MHC class I (HLA-A, B, C), B2M, and MHC class II (HLA-DR) levels were analyzed 72 hours later using flow cytometry. Values represent the average mean fluorescence intensity (MFI) for three independent experiments and error bars represent the SEM. […] GAPDH levels are shown as a loading control. D, Induction of HLA-A, HLA-DR, CIITA and NLRC5 mRNA in A375 cells. […] Control cells were treated only with vehicle (DMSO). Steady state mRNA levels were measured using quantitative real-time RT-PCR 72 hours later and are expressed as fold over vehicle (DMSO) treated cells. Error bars represent SEM from at least 3 independent experiments. (*, p<0.05, **, p<0.01, 2-tailed paired Student's t test, as compared to cells treated with IFN-γ and pre-treated with DMSO)
Error bars represent the SEM. […] Flow cytometry was used to select transfected (GFP positive) and non-transfected (GFP negative) cells and MHC class I levels were measured on these two cell populations. Average values from three independent experiments are shown. MHC class I levels are expressed as the % of MHC class I on control cells (cells non-transfected using the empty vector plasmid). […] Cells stained with an isotype control antibody are shown in black filled.

[2] = test system: phospho-ERK (Thr 202/Tyr 204); assay: ERK phosphorylation by western blot in A375 cells; format: cell-based; settings: 10 μM PLX4720, western blot, 24 hours
Experimental: A representative western blot is shown. A375 cells were pre-treated with vehicle (DMSO) or 10 μM of PLX4720 60 minutes prior to the addition of IFN-γ (100 U/ml). Whole cell lysates were prepared 24 hours later and levels of phospho-ERK (Thr 202/Tyr 204) and total ERK protein were analyzed by western blot. […] The error bars represent the SEM.
A representative western blot is shown. […] Cell lysates were prepared 72 hours later and levels of total ERK and phospho-ERK (Thr 202/Tyr 204) protein analyzed by western blot. […] GAPDH levels are shown as a loading control. […] Control cells were treated only with vehicle (DMSO).

[3] = test system: melanoma cell lines; assay: MHC induction by IFN-γ with PI3K/mTOR inhibitor in melanoma cell lines, flow cytometry; settings: BEZ235 0.5 μM, MHC class I and class II, melanoma cell lines of FIG. 4
Experimental: Fold induction of cell surface MHC class I was calculated by dividing averaged MFI values for cells treated as indicated along the x-axis by averaged MFI values of cells treated with vehicle (DMSO) alone. […] MHC class I and class II levels were assessed as in part A.
BEZ235 a dual PI3K/mammalian target of rapamycin inhibitor was used.

[4] = test system: AKT (serine 473); assay: AKT phosphorylation in the melanoma cell model system; format: cell-based; settings: BEZ235
[5] = test system: SKMEL-5 cells; assay: Cell surface MHC by flow cytometry in SKMEL-5 cells after IFN-γ; settings: SKMEL5 cells (heterozygous for BRAFV600E), vemurafenib 0.5 μM, 72 hours
Experimental: (§1) Cell surface MHC class I (HLA-A, B and C, top panels) and MHC class II (HLA-DR, lower panels) levels were measured 72 hours later using flow cytometry. […] Fold induction of cell surface MHC class I was calculated by dividing averaged MFI values for cells treated as indicated along the x-axis by averaged MFI values of cells treated with vehicle (DMSO) alone. Fold inductions for heterozygous cell lines (MALME-3M, SKMEL-3, and SKMEL-5) were averaged together (gray bars) as were the fold inductions for three homozygous (white bars) cell lines (A375, HT-144, and SKMEL-28). […] The DMSO-treated cells (gray diamonds) from part A are compared to those treated with BEZ235 (0.5 μM, black squares). MHC class I and class II levels were assessed as in part A.

[6] = test system: SKMEL-3 cells; assay: Cell surface MHC by flow cytometry in SKMEL-3 cells after IFN-γ; settings: SKMEL3 cells (heterozygous for BRAFV600E), vemurafenib 0.5 μM, 72 hours
Experimental: as §1

[7] = test system: MALME-3M cells; assay: Cell surface MHC by flow cytometry in MALME-3M cells after IFN-γ; settings: MALME-3M cells (heterozygous for BRAFV600E), vemurafenib 0.5 μM, 72 hours
Experimental: as §1

[8] = test system: CIITA mRNA; settings: SKMEL-28 cells, vemurafenib 0.5 μM, IFN-γ 20 U/ml
Experimental: as §1

[9] = test system: BRAFV600E heterozygous cell lines (MALME-3M, SKMEL-3, and SKMEL-5); assay: Fold MHC class I induction averaged over BRAFV600E heterozygous cell lines; settings: MFI over vehicle (DMSO) alone
Experimental: as §1

[10] = test system: BRAFV600E homozygous cell lines (A375, HT-144, and SKMEL-28); assay: Fold MHC class I induction averaged over BRAFV600E homozygous cell lines; settings: MFI over vehicle (DMSO) alone
Experimental: The y-axis represents average MFI for at least three independent experiments except those for MeWo and SKMEL-5 which are the average of two independent experiments. […] Fold induction of cell surface MHC class I was calculated by dividing averaged MFI values for cells treated as indicated along the x-axis by averaged MFI values of cells treated with vehicle (DMSO) alone. […] MHC class I and class II levels were assessed as in part A.

[11] = test system: SKMEL-2 (BRAF codon 600 wild-type) cells; assay: Cell surface MHC by flow cytometry in SKMEL-2 cells after IFN-γ
Experimental: Values represent the average mean fluorescence intensity (MFI) for three independent experiments and error bars represent the SEM. […] Control cells were treated only with vehicle (DMSO). […] Error bars represent SEM from at least 3 independent experiments.

[12] = A375 cells, sorafenib 10 μM prior to IFN-γ 2000 U/ml, not statistically significant (ANOVA)

CCCS(=O)(=O)Nc1ccc(F)c(C(=O)c2c[nH]c3ncc(Cl)cc23)c1F [PLX4720]
induction of MHCI molecules by IFN-γ ([1]; A375 cells, 10 μM PLX4720 60 minutes prior to IFN-γ (10 U/ml), 72 hours): enhanced the induction of MHCI molecules by IFN-γ | levels of ERK phosphorylation [2]: reduced levels of ERK phosphorylation

CNC(=O)c1cc(Oc2ccc(NC(=O)Nc3ccc(Cl)c(C(F)(F)F)c3)cc2)ccn1 [sorafenib]
induction of MHCI molecules by IFN-γ [1, 12]: enhanced the induction of MHCI molecules | induction of the MHCII molecule HLA-DR by IFN-γ [1, 12]: decreased the induction of the MHCII molecule HLA-DR

Cn1c(=O)n(-c2ccc(C(C)(C)C#N)cc2)c2c3cc(-c4cnc5ccccc5c4)ccc3ncc21 [BEZ235]
induction of MHC molecules by IFN-γ [3]: did not enhance the induction of MHC molecules by IFN-γ, rather, it attenuated MHC induction in some of the cell lines examined | phosphorylation of AKT (serine 473) [4]: reduced the phosphorylation of AKT (serine 473)

CCCS(=O)(=O)Nc1ccc(F)c(C(=O)c2c[nH]c3ncc(-c4ccc(Cl)cc4)cc23)c1F [vemurafenib]
induction of MHCI molecules by IFN-γ [5]: no effect | induction of MHCII molecules by IFN-γ [5]: no effect | induction of MHCI molecules by IFN-γ [6]: no effect | induction of MHCII molecules by IFN-γ [6]: no effect | induction of MHCI molecules by IFN-γ [7]: no effect | induction of MHCII molecules by IFN-γ [7]: no effect | time after the addition of IFN-γ at which the effect on CIITA mRNA was most pronounced [8]: 48 h

B1: IFN-γ: a type II interferon, cytokine, potent inducer of MHC expression (protein, UniProt P01579 24-161, looked up)
Interferon gamma: QDPYVKEAENLKKYFNAGHSDVADNGTLFLGILKNWKEESDRKIMQSQIVSFYFKLFKNFKDDQSIQKSVETIKEDMNVKFFNSNKKKRDDFEKLTNYSVTDLNVQRKAIHELIQVMAELSPAAKTGKRKRSQMLFRG
MHCI cell surface expression ([1]; A375 cells treated with IFN-γ alone, flow cytometry): lead to an induction of MHCI cell surface expression | fold increase of MHCI levels by IFN-γ [9]: around four | fold increase of MHCI levels by IFN-γ [10]: around four | cell surface MHCI, MHCII and B2M protein levels [11]: increases in cell surface MHCI, MHCII and B2M protein levels
